Patent publication US20100069319A1, “Mercaptopurine derivatives and uses thereof” (priority 2007, published 2010)

Columns and labels:
Daudi cells [1] = assay: [3H] thymidine incorporation into DNA (cell proliferation); assay type: cell-based; conditions: 16 h
Method: (§1) The effects of 6-MP derivatives on DNA synthesis were assessed by [Methyl-^3H] thymidine incorporation into DNA. All the experiments performed with cells were carried out at least in triplicates. Adhesive cells (N87, Hela HtTA-1 and MDR HT-29) were seeded at 10,000 cells/well (96-well plate) or 60,000 cells/well (24-well plate). Cells in suspension (B-CLL, Daudi, HL-60, Jurkat, MOLT4 and U937cells) were seeded at 15,000 cells/well (96-wells plate) or 100,000 cells/well (24-wells plate). Adhesive cells were grown at 37° C. for 6 h after seeding, before treatment. For the assessment of [Methyl-^3H] thymidine incorporation, cells were treated with various concentrations of 6-MP derivatives at 37° C. for 16 h in the presence of [Methyl-^3H] thymidine (0.8-1.0 μCi/well). Then, plates were frozen (−20° C., 1 h). Adhesive cells were trypsinized before harvesting. Cells in suspension were directly harvested after thawing out the frozen cells.
(§2) The antiproliferative effect of 6-MP and SA-6MP on various cell lines was assessed by determining [^3H] thymidine incorporation into the DNA. 6-MP and SA-6MP at 0-200 μM were applied to Daudi, Hela and N87 cells cultured in 96-well plates in the presence of [^3H] thymidine, as described in Materials and Methods. […] As further shown, the sensitivity to the prodrug is cell type dependent.

Hela cells = assay: as above; assay type: cell-based, human; conditions: 16 h
Method: as §1, §2

N87 cells = assay: as above; assay type: cell-based, human; conditions: 16 h
Method: as §1, §2

Daudi cells [2] = assay: XTT cell proliferation assay; assay type: cell-based; conditions: 16 h
Method: (§3) Cell proliferation was determined by the XTT viability assay in 96-well plates, based on the reduction of tetrazolium salt to soluble formazan compounds by living cells. Cells (10,000-15,000 cells/well) were seeded in a 96-well plate. After 16 h incubation with various concentrations of 6-MP, 6-MPR and their S-allylthio-derivatives, 50 μl of XTT/PMS mixture (50 μM PMS, 0.1% XTT in medium) was added onto the cells. After an incubation period of 3-4 h at 37° C. the absorbance of the samples was measured in an ELISA Reader at 450 nm. SDS (1%, 10 μl/well) was added to reference wells before adding the XTT/PMS solution.
The inhibitory effects of the various prodrugs on Daudi leukemia cell and on monolayer N87 cells were compared. […] XTT was added to the wells for 3 h at 37° C. Cell viability was monitored using an ELISA reader at 450 nm, as described in Materials and Methods.

B-CLL = assay: Anti-proliferative concentration IC50 (Table 2); assay type: cell-based; conditions: Homo sapiens, 16 h, tested at 0-100 μM, read-out: Anti-proferative concentration - IC50 (mean ± SE)
Method: as §3
(§4) The results of viability and proliferation were expressed as mean values±SD (n=3-6). For each cell line, the results were analyzed using two-way analysis of variance (ANOVA) followed by Bonferroni's posttest for the factors of the drugs used and their various concentrations, considering p<0.05 as significant. IC50 values (mean±SEM) were obtained from the linear range of the viability curve versus drug concentration (XTT assay).
(§5) In particular, cell in suspension, namely, Daudi, HL-60, U937, Molt-4, Jurkat and B-CLL, were tested at prodrug concentration of 0-100 μM, and monolayer cells, namely, Hela HtTA-1, MDR HT-29 and N87, were tested at prodrug concentration of 0-200 μM. in both cases, cell viability was determined by trypan blue dye exclusion assay. Data are presented in Table 2 hereinbelow for 6MP derivatives-treated for 16 h.

Daudi = assay: Anti-proliferative concentration IC50 (Table 2); assay type: cell-based; conditions: Homo sapiens, 16 h, tested at 0-100 μM, read-out: Anti-proferative concentration - IC50 (mean ± SE)
Method: as §3, §4, §5

Molt-4 = assay: Anti-proliferative concentration IC50 (Table 2); assay type: cell-based; conditions: Homo sapiens; Molt-4, 16 h, tested at 0-100 μM; read-out: Anti-proferative concentration - IC50 (mean ± SE)
Method: as §3, §4, §5

[3] = test system: human peripheral blood mononuclear cells (PBMCs); conditions: after 4 days of treatment, read-out: IC50, T-cell mitogen-induced blastogenesis; cited from earlier work
HL-60 = assay: Anti-proliferative concentration IC50 (Table 2); assay type: cell-based, human; conditions: Homo sapiens; HL-60, 16 h, tested at 0-100 μM; read-out: Anti-proferative concentration - IC50 (mean ± SE)
Method: as §3, §4, §5

N87 = assay: Anti-proliferative concentration IC50 (Table 2); assay type: cell-based, human; conditions: Homo sapiens; N87, 16 h, tested at 0-200 μM; read-out: Anti-proferative concentration - IC50 (mean ± SE)
Method: as §3, §4, §5

[4] = at the same concentrations (0-200 μM)
[5] = Homo sapiens, [3H] thymidine incorporation, read-out: concentration at which 50% inhibition was observed

With Sc1ncnc2nc[nH]c12 [6-MP, 6-Mercaptopurine, reference compound] the “inhibition of proliferation” value (Daudi cells [1]; [4]) was “no inhibition of proliferation”, the “inhibition of proliferation” value (Hela cells; [4]) was “no inhibition of proliferation” and the “inhibition of proliferation” value (N87 cells; [4]) was “no inhibition of proliferation”. The “cell proliferation” value (Daudi cells [2]; 0-100 μM) was “no significant loss of cell proliferation”, the IC50 (B-CLL) was greater than 900 µM and the IC50 (Daudi) was greater than 200 µM. The IC50 (Molt-4) was 50.5 ± 6.1 µM and the IC50 [3] was 0.149 ± 0.125 µM.
Work on C=CCSSc1ncnc2nc[nH]c12 [SA-6MP, S-allylthio-6-mercaptopurine] yielded an IC50 (Daudi cells [1]; [5]) of roughly 20 µM, an IC50 (Hela cells; [5]) of 110 µM and an IC50 (N87 cells; [5]) of 100 µM. For the same compound, the residual proliferation (Daudi cells [2]; 50 μM) was 15-30%, the IC50 (HL-60) was 42 ± 3.8 µM and the IC50 (N87) was 70.5 ± 8.5 µM. For the same compound, the IC50 (B-CLL) was 129 ± 14.2 µM, the IC50 (Daudi) was 38.3 ± 3.9 µM and the IC50 (Molt-4) was 8.9 ± 1.2 µM.
